In this assay the test system is amylase enzyme. Kind of assay: Amylase inhibition (salivary and intestinal amylase). In kind it is biochemical. Particulars: amylase present in saliva and in the gut.

The structures appear in SMILES notation.

Take `O=C(/C=C/c1ccc(O)c(O)c1)O[C@@H]1C[C@](O)(C(=O)O)C[C@@H](O)[C@H]1O` [chlorogenic acid]: the “Effect on amylase enzyme” value is listed as “blocks the amylase enzyme”.

For the origin of these results see patent US8865134B2, “Chewing gum” (Med-Eq AS, priority 2005, dated 2014).
